Series [1] concerns the target T1, Matrix metalloproteinase-9 (Homo sapiens, UniProt P14780). As to the kind of experiment: Inhibition of MMP9 in human U2OS cells at 5 umol/L by peptide microarray-based fluorescence assay. The series is classed as cell-based. Conditions: dose 5.0 µmol/L.
For series [2], the target named is 72 kDa type IV collagenase (Homo sapiens, UniProt P08253). Put plainly: Inhibition of MMP2 in human U2OS cells at 5 umol/L by peptide microarray-based fluorescence assay. Format: cell-based. Conditions: dose 5.0 µmol/L.
Chain of 72 kDa type IV collagenase (P08253 110-660 limits assumed): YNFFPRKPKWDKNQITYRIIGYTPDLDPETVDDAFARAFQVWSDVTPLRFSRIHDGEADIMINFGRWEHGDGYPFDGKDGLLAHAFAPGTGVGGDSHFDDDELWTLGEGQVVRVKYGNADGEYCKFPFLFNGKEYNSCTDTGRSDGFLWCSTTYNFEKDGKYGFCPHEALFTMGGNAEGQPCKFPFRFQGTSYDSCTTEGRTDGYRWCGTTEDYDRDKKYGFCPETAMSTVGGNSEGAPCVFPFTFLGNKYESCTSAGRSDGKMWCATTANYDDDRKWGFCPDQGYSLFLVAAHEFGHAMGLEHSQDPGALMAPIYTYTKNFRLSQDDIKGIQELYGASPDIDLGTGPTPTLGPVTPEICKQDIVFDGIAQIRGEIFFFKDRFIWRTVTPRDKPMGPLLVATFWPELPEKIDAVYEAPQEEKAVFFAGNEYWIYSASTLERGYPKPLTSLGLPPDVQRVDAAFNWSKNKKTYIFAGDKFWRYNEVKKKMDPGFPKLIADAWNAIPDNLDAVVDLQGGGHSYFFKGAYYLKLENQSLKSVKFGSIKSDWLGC
Series [3] concerns the target T2, Collagenase 3 (Homo sapiens, UniProt P45452). Put plainly: Inhibition of MMP13 in human U2OS cells at 5 umol/L by peptide microarray-based fluorescence assay. Format: cell-based. Conditions: dose 5.0 µmol/L.
The next series has as its target Stromelysin-1 (Homo sapiens, UniProt P08254). As to the kind of experiment: Inhibition of MMP3 in human U2OS cells at 5 umol/L by peptide microarray-based fluorescence assay. The series is classed as cell-based. Conditions: dose 5.0 µmol/L.
Series [4] has as its target T3, Interstitial collagenase (Homo sapiens) (UniProt P03956).
T3 sequence (whole entry): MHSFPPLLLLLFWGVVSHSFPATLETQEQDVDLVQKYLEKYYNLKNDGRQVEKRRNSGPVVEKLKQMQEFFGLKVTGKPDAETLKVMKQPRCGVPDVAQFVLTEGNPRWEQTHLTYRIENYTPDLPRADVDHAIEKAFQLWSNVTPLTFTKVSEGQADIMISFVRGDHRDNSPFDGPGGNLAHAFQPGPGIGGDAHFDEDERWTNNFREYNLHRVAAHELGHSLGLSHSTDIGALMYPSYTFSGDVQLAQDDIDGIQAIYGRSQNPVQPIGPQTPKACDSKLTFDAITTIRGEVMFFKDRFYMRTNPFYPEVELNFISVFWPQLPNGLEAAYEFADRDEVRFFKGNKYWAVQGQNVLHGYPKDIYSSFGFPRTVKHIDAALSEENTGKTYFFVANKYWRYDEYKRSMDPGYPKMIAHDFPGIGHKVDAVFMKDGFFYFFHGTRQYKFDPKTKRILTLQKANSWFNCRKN
As to the kind of experiment: Inhibition of MMP1 in human U2OS cells at 5 umol/L by peptide microarray-based fluorescence assay. Conditions: dose 5.0 µmol/L. Format: cell-based.

Series [5] deals with T4, Matrilysin (Homo sapiens) (UniProt P09237).
T4 sequence (whole entry): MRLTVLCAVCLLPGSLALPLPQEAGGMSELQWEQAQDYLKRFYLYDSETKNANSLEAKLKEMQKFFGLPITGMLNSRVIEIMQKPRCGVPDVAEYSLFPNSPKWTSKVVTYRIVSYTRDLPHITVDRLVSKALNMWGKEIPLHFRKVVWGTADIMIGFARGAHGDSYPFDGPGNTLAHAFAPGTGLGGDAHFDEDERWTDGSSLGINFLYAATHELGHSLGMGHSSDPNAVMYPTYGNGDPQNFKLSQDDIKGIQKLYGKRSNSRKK
As to the kind of experiment: Inhibition of MMP7 in human U2OS cells at 5 umol/L by peptide microarray-based fluorescence assay. Conditions: dose 5.0 µmol/L. Format: cell-based.

The nature of series [6]: Toxicity in human MCF7 cells assessed as cell viability at 2.5 umol/L incubated for 24 hrs by MTT assay relative to control. Format: cell-based. Conditions: dose 2.5 µmol/L, read-out: Activity.
For series [7], the target named is T2, Collagenase 3. As to the kind of experiment: Inhibition of MMP13 in human U2OS cells by peptide microarray-based fluorescence assay. Format: cell-based.
Series [8] can be described thus: Toxicity in human U2OS cells assessed as cell viability at 2.5 umol/L incubated for 24 hrs by MTT assay relative to control. Conditions: dose 2.5 µmol/L, read-out: Activity. The series is classed as cell-based. For orientation: Formazan colour is commonly taken as a measure of viable cells.
The subject of series [9] is U2OS. As to the kind of experiment: Antitumor activity against human U2OS cells xenografted in NOD/SCID mouse assessed as time duration with 100% survival with at 34 ug, iv dosed once every 2 days for 6 days successively relative to control. Format: functional. Conditions: dose 34 µg, time 6 day. On the technique in general: Xenograft models place foreign cells or tissue in a host animal.

Series [10] is described as follows: Toxicity in Kunming mouse assessed as effect on body weight changes measured after 14 days. Conditions: in vivo, 336 h, time 14 day.
Series [11] is described as follows: Toxicity in Kunming mouse assessed as effect on blood components measured after 14 days. Conditions: in vivo, 336 h, time 14 day.
Series [12] is described as follows: Toxicity in human HEK293T cells assessed as cell viability at 2.5 umol/L incubated for 24 hrs by MTT assay relative to control. The series is classed as cell-based, HEK-293T. Conditions: dose 2.5 µmol/L, read-out: Activity.
In series [13] the target is T2, Collagenase 3. As to the kind of experiment: Inhibition of MMP13 in human U2OS cells at 1 umol/L by peptide microarray-based fluorescence assay. Conditions: dose 1.0 µmol/L. Format: cell-based.
A short description of series [14]: Toxicity in human NCM460 cells assessed as cell viability at 2.5 umol/L incubated for 24 hrs by MTT assay relative to control. Format: cell-based. Conditions: dose 2.5 µmol/L, read-out: Activity.
The nature of series [15]: Toxicity in human MDA-MB-231 cells assessed as cell viability at 2.5 umol/L incubated for 24 hrs by MTT assay relative to control. Format: cell-based. Conditions: dose 2.5 µmol/L, read-out: Activity.
The nature of series [16]: Toxicity in Kunming mouse assessed as induction of adverse effect or tissue damage in major organs measured after 14 days. Conditions: in vivo, 336 h, time 14 day.
For series [17], the system named is U2OS. As to the kind of experiment: Inhibition of cell migration of human U2OS cells at 2.5 umol/L incubated for 24 hrs by would healing assay. The series is classed as functional, cell-based. Conditions: dose 2.5 µmol/L.
The nature of series [18]: Toxicity in human HCT-116 cells assessed as cell viability at 2.5 umol/L incubated for 24 hrs by MTT assay relative to control. The series is classed as cell-based. Conditions: dose 2.5 µmol/L, read-out: Activity.
Series [19] can be described thus: Toxicity in human HL7702 cells assessed as cell viability at 2.5 umol/L incubated for 24 hrs by MTT assay relative to control. Conditions: dose 2.5 µmol/L, read-out: Activity. The series is classed as cell-based, L02.
The test system of series [20] is U2OS. Put plainly: Antitumor activity against human U2OS cells xenografted in NOD/SCID mouse assessed as inhibition of tumor growth at 34 ug, iv dosed once every 2 days for 6 days successively relative to control. The series is classed as functional. Conditions: dose 34 µg, time 6 day.
The subject of series [21] is U2OS. Put plainly: Antitumor activity against human U2OS cells xenografted in NOD/SCID mouse assessed as inhibition of distant organ metastasis at 34 ug, iv dosed once every 2 days for 6 days successively relative to control. Format: functional, organism-based. Conditions: dose 34.0 µg, time 6.0 day.
Series [22] deals with U2OS. Put plainly: Antitumor activity against human U2OS cells xenografted in NOD/SCID mouse assessed as inhibition of growth of both primary and metastatic tumors at 34 ug, iv dosed once every 2 days for 6 days successively relative to control. The series is classed as functional, organism-based. Conditions: dose 34.0 µg, time 6.0 day.
The subject of series [23] is U2OS. As to the kind of experiment: Antitumor activity against human U2OS cells xenografted in NOD/SCID mouse assessed as inhibition of growth of both primary and metastatic tumors at 30 ug, iv dosed once every 2 days for 6 days successively relative to control. The series is classed as functional, organism-based. Conditions: dose 30.0 µg, time 6.0 day.
For series [24], the system named is U2OS. As to the kind of experiment: Antitumor activity against human U2OS cells xenografted in NOD/SCID mouse assessed as inhibition of tumor growth at 30 ug, iv dosed once every 2 days for 6 days successively relative to control. Format: functional. Conditions: dose 30 µg, time 6 day.
Series [25] has as its target T1, Matrix metalloproteinase-9. As to the kind of experiment: Inhibition of MMP9 in human U2OS cells by peptide microarray-based fluorescence assay. The series is classed as cell-based.
Series [26] has as its system U2OS. As to the kind of experiment: Antitumor activity against human U2OS cells xenografted in NOD/SCID mouse assessed as inhibition of distant organ metastasis at 30 ug, iv dosed once every 2 days for 6 days successively relative to control. Conditions: dose 30.0 µg. The series is classed as functional, organism-based.
In series [27] the target is T3, Interstitial collagenase (Homo sapiens). As to the kind of experiment: Inhibition of MMP1 in human U2OS cells at 1 umol/L by peptide microarray-based fluorescence assay. Format: cell-based. Conditions: dose 1.0 µmol/L.
In series [28] the target is T1, Matrix metalloproteinase-9. Put plainly: Inhibition of MMP9 in human U2OS cells at 1 umol/L by peptide microarray-based fluorescence assay. Conditions: dose 1.0 µmol/L. Format: cell-based.
The subject of series [29] is U2OS. As to the kind of experiment: Antitumor activity against human U2OS cells xenografted in NOD/SCID mouse assessed as time duration with 100% survival with at 30 ug, iv dosed once every 2 days for 6 days successively relative to control. Conditions: dose 30 µg, time 6 day. Format: functional.

The structures appear in SMILES notation. Active and inactive are the calls of the source. No cut-off for these calls is given here.

T1 sequence (P14780 whole entry): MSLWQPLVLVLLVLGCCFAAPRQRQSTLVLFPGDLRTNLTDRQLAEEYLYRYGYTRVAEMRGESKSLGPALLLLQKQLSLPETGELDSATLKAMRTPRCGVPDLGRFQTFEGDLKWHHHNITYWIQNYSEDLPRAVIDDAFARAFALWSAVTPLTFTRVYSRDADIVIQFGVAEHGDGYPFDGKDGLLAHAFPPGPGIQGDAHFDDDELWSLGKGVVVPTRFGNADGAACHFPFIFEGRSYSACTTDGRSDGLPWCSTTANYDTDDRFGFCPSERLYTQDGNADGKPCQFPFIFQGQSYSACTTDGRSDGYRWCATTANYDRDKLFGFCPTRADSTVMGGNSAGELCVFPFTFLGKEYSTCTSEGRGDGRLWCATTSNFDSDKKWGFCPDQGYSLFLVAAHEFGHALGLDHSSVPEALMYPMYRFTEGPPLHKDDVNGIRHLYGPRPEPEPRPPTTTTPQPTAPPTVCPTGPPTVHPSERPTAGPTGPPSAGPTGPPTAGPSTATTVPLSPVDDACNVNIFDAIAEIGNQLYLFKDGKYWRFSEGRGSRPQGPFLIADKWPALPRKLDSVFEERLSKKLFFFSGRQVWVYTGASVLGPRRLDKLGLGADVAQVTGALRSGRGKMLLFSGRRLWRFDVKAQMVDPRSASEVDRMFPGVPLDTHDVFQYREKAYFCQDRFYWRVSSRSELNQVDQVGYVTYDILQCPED
Chain of Stromelysin-1 (P08254 100-477 limits assumed): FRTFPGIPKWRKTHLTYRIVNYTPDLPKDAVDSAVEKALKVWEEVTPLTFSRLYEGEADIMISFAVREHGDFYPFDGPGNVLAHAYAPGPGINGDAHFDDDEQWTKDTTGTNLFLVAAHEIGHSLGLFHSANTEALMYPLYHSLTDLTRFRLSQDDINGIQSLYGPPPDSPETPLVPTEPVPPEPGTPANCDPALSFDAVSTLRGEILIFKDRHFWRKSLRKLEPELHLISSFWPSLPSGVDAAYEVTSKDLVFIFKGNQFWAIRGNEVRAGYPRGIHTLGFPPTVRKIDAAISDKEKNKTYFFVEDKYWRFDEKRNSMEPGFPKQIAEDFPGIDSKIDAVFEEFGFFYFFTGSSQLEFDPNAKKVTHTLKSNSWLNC

In general, inhibition refers to the percentage by which the read-out fell short of the control. In the case of `O=C1C[C@@H](c2ccc(O)cc2)Oc2cc(O)ccc21`, the inhibition (in [1]; in series [2]; at Collagenase 3 [3]; at Stromelysin-1; in [4]; in series [5]) was above 50% throughout.
For `COc1ccc(-c2cc(=O)c3c(OC)c(OC)c(OC)cc3o2)cc1OC`, the inhibition (in series [2]; at Collagenase 3 [3]; at Stromelysin-1; in series [4]; in series [5]) was above 50% throughout.
As usually defined, the IC50 is the midpoint of a concentration-inhibition curve. A high value points to weaker potency in that assay. For orientation: TGI means how far tumour growth fell short of that in controls. For `COc1cc(C2Oc3ccc([C@H]4Oc5cc(O)cc(O)c5C(=O)[C@@H]4O)cc3OC2CO)ccc1O` (stereo not given in full), the viability at 24 h, 2.5 µM in series [6], in series [8], in [12], in [14], in [15] and in series [18] was above 90% throughout. Moreover, in series [19], the viability at 24 h, 2.5 µM was above 90%. The same molecule yielded an IC50 on Collagenase 3 [7] of 250 nM. Also, the Survival with U2OS [9] was determined as 43 days. In addition, the Activity entry in [10], in series [11] and in series [16] was “Non-Toxic” throughout. The inhibition (in series [1]; against Collagenase 3 [3]) was above 50% throughout. The inhibition entry on Collagenase 3 [13], in the series on U2OS [17], in the series on U2OS [21] and with U2OS [22] was “Active” in each case. Further, the tumour growth inhibition (TGI) in the series with U2OS [20] was 60%.
Regarding `O=c1c2cc(O)c(O)cc2oc2cc(O)c([C@@H]3O[C@H](CO)[C@@H](O)[C@H](O)[C@H]3O)c(O)c12` [MANGIFERIN], the viability at 24 h, 2.5 µM in series [6], in [8], in series [12], in [14], in series [15] and in series [18] was above 90% each time. Moreover, the viability at 24 h, 2.5 µM in series [19] is above 90%. Further, the Activity entry in [10], in series [11] and in series [16] was “Non-Toxic” in each case. For the same molecule, the inhibition in series [1] and in series [4] was above 50% in each case. The inhibition result (in the series with U2OS [23]; in the series with U2OS [17]; in the series on U2OS [26]; in series [27]; in [28]) was “Active” in each case. The TGI with U2OS [24] was 35%. The molecule also had an IC50 in [25] of 250 nM. Moreover, the Survival in the series with U2OS [29] came out at 41 days.
